Experimental data taken from ChEMBL document CHEMBL1201862, “PubChem BioAssay data set” (2004).
Active and inactive are the calls of the source.

Tests used:
[1] = Intein inhibitors as potential Tuberculosis drugs, a cytotoxicity screen. [Related pubchem assays (depositor defined):AID2221, AID2223, AID434968, AID435010, AID449749, AID449750, AID489010]; type: functional
Phospholipase A2 = Phospholipase A2 (Homo sapiens, UniProt P04054); type: functional;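 further: confirmatory dose-response counterscreen on phospholipase A2, testing hits that came from an ultra-high-throughput screen for ATG4B inhibitors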
Phospholipase A2, sequence (P04054 whole entry): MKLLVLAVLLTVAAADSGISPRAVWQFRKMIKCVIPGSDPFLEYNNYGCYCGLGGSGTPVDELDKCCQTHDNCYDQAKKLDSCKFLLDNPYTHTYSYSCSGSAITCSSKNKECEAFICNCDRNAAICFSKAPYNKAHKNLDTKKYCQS

[2] = target: T1, DNA repair and recombination protein RAD54-like (Homo sapiens, UniProt Q92698); assay: RAD54 Holliday junction migration blockers – biochemical, fluorescence, cherry-picked samples, dose series, confirmation (AID 651657); type: functional
T1 sequence (Q92698 whole entry): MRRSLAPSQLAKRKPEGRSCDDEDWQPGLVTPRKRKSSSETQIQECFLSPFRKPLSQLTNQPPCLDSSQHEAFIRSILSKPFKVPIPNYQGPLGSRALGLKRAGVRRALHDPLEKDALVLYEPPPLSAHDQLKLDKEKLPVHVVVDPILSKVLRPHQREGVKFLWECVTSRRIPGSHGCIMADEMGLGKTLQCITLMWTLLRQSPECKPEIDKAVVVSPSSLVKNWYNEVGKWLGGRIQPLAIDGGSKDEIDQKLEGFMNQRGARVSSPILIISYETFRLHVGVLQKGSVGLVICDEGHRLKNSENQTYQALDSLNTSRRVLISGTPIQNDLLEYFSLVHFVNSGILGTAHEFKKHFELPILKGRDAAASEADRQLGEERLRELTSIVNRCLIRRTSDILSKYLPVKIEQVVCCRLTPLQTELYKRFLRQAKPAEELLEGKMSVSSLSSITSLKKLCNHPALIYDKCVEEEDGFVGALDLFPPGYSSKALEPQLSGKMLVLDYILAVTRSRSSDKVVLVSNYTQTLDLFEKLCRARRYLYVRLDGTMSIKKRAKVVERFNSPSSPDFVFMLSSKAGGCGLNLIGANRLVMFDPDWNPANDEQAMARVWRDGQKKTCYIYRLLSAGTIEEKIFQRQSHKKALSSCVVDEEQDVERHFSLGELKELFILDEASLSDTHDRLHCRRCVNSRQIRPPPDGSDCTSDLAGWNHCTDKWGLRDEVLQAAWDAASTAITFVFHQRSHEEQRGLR

Caspase-7 = target: T2, Caspase-7 (Homo sapiens, UniProt P55210); assay: caspase-7 enzyme inhibition, selectivity check – biochemical, DEVD-R110 fluorescence, cherry-pick, selectivity assay for caspase-6 inhibitor project, dose response (AID 743295); type: functional
T2 sequence (P55210 whole entry): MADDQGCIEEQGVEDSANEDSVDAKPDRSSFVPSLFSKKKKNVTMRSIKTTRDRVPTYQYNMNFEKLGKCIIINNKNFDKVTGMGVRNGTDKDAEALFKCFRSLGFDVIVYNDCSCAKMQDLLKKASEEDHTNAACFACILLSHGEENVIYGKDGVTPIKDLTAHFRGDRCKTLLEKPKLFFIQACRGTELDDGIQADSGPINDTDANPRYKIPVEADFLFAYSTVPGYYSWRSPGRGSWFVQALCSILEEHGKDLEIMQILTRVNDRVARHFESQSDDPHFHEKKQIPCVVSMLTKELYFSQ

[3] = fluconazole-exposed Candida albicans growth modulators – fluorescence, retest, confirmation (AID 2467); type: functional, cell-based
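Wherever CC50 is given: cells exposed to compound for 72 hours before luminescence readout.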

**Q.** With Cn1nc(-c2ccccn2)nc2c(=O)n(C)c(=O)nc1-2 as the compound, how does the CC50 [1] read?
**A.** > 40 µM (active)

**Q.** And the IC50 (Phospholipase A2)?
**A.** > 80 µM (inactive)

**Q.** What about the AC50 [2] of the same compound?
**A.** 1.22 µM (active)

**Q.** What about the AC50 (Caspase-7) of the same compound?
**A.** 0.371 µM (active)

**Q.** With CCCCCCCCCCn1c2c(c(=N)c3c1CCC3)CCC2 as the compound, how does the EC50 [3] read?
**A.** 0.779 µM (active)

**Q.** What about the CC50 [1] of the same compound?
**A.** 8.51 µM (active)

**Q.** With CCC(=O)NC(c1ccc(OC)cc1)c1cc(Cl)c2cccnc2c1O (centres undefined) as the compound, how does the EC50 [3] read?
**A.** 0.769 µM (active)

**Q.** Which results are given for COc1ccc(NS(=O)(=O)c2ccc3c(c2)[C@H]2C=CC[C@H]2[C@@H](c2ccc(C(=O)O)cc2)N3)cc1?
**A.** IC50 (Phospholipase A2): 6.87 µM (active); AC50 (Caspase-7): > 70 µM (inactive)
